Experiments:
[1] = biological target: T1, SSTR4 (Homo sapiens, UniProt P31391); assay: Inhibition of forskolin stimulated cAMP in CHO-K1 cells overexpressing SSTR4; format: cell-based; settings: read-out: SSTR4 Activity pEC50 (converted)
T1 construct: host or cells: CHO-K1
Experimental: Inhibition of Forskolin Stimulated cAMP in Cells Overexpressing SSTR4
This cell-based assay measures the ability of compounds to inhibit forskolin stimulated cAMP in CHO-K1 cells overexpressing SSTR4. CHO-K1 cells overexpressing SSTR4 (CHO-SSTR4) are purchased from DiscoveRx (product code 95-0059C2). The CHO-SSTR4 cells are maintained in F12K media with 10% Fetal Bovine Serum (Hyclone), 1% Pen/Strep (Life Technologies), and 800 μg/mL G418 (Life Technologies). To perform the assay, 3000 cells are plated per well in white 384-well plate (Corning 3570) in 50 μL complete media and the cells are allowed to attach for 16 hours in a 37° C., 5% CO2 incubator. The next day, the culture media is removed from the cells and the cells are washed (added then removed) with Krebs Ringer Buffer (ZenBio, KRB-1000 mL). Test compounds are suspended in DMSO and diluted in stimulation buffer: Krebs Ringer Buffer plus 0.5% BSA (Roche), 300 μM IBMX (Sigma), and 350 nM forskolin (Sigma). The cells are incubated in 10 μL compound/stimulation buffer for 30 minutes at room temperature. Cellular cAMP levels are detected with a HTRF LANCE Ultra cAMP kit (Perkin Elmer, catalog number TRF0264).
The assay is performed in accordance with the manufacturer's instructions. Five μL of diluted Eu-W8044 labeled streptavidin (dilution: 1:50 in cAMP Detection Buffer) is added to each well. Then 5 μL of diluted biotin cAMP (dilution: 1:150 in cAMP Detection Buffer) is added to each well. The plates are covered and allowed to incubate for 60 minutes at room temperature on a shaker. HTRF (665 nm/615 nm) is read on a Perkin Elmer ENVISION plate reader. The pEC50 values are generated using Activity Base for Screening Data Management.

[2] = biological target: T1, SSTR4; assay: SSTR4 I-125 somatostatin competition binding assay (CHO-K1 membranes); settings: competition with I-125 somatostatin, membranes from CHO-K1 overexpressing SSTR4; read-out: SSTR4 Binding pIC50 (converted)
Experimental: SSTR4 I-125 Somatostatin Competition Binding Assay
Membranes from CHO-K1 cells overexpressing SSTR4 are purchased from Perkin Elmer (catalog number ES-524-M400UA). Test compounds are suspended in DMSO and then diluted in assay buffer (25 mM HEPES pH 7.4, 10 mM MgCl2, 1 mM CaCl2), 0.5% BSA) plus 0.2 nM I-125 labeled somatostatin (Perkin Elmer catalog number NEX389). Fifty μL of compound/I-125 somatostatin in assay buffer are added per well to 96-well poly-propylene plate. Then 1 μg of SSTR4 membranes in 50 μL assay buffer are added per well. The Plate is incubated for 60 minutes at room temperature. FilterMat A filters (Perkin Elmer catalog number 1450-421) are pre-soaked in 0.5% PEI (Sigma catalog number P3143). The contents of the assay plate are transferred to filters with a TomTech harvester and washed 5 times with 20 mM HEPES, 100 mM NaCl. The filters are dried in a microwave oven then transferred to sample bag containing a scintillator sheet (Perkin Elmer catalog number 1450-441). The scintillator sheets are melted to filters using a heat block. The filters are then read in a MicroBeta scintillation counter. Binding Ki curves are generated using Activity Base for Screening Data Management and the results are reported as pIC50.

[3] = biological target: T2, SSTR1 (Homo sapiens, UniProt P30872); assay: SSTR1 I-125 somatostatin competition binding assay for selectivity versus SSTR1 (CHO-K1 membranes); settings: competition with I-125 somatostatin, membranes from CHO-K1 overexpressing SSTR1; read-out: SSTR1 Binding pIC50 (converted)
T2 construct: purchased Perkin Elmer ES-520-M400UA; host or cells: CHO-K1 membranes
T2 sequence (P30872 whole entry): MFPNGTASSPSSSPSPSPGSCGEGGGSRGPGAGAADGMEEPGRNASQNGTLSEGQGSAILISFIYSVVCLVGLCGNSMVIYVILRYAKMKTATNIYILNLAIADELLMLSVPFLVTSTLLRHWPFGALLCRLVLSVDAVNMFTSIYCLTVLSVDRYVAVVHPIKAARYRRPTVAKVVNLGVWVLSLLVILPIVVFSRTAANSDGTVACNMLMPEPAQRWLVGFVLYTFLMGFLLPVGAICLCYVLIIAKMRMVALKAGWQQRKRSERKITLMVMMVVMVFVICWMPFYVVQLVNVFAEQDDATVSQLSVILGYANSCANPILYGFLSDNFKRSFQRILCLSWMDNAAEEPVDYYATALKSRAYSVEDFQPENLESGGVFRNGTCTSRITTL
Experimental: SSTR1 I-125 Somatostatin Competition Binding Assay for Selectivity Versus SSTR1
Membranes from CHO-K1 cells overexpressing SSTR1 are purchased from Perkin Elmer (catalog number ES-520-M400UA). Test compounds are suspended in DMSO and then diluted in assay buffer (25 mM HEPES pH 7.4, 10 mM MgCl2, 1 mM CaCl2), 0.5% BSA) plus 0.4 nM I-125 labeled somatostatin (Perkin Elmer catalog number NEX389). Fifty μL of compound/I-125 somatostatin in assay buffer are added per well to 96-well poly-propylene plate. Then 10 μg of SSTR1 membranes in 50 μL assay buffer are added per well. The plate is incubated for 60 minutes at room temperature. FilterMat A filters (Perkin Elmer catalog number 1450-421) are pre-soaked in 0.5% PEI (Sigma catalog number P3143). The contents of the assay plate are transferred to filters with a TomTech harvester and washed 5 times with 20 mM HEPES, 100 mM NaCl. The filters are dried in a microwave oven then transferred to sample bag containing a scintillator sheet (Perkin Elmer catalog number 1450-441). The scintillator sheets are melted to the filters using a heat block. The filters are then read in a MicroBeta scintillation counter. Binding Ki curves are generated using Activity Base for Screening Data Management and the results are reported as pIC50.

T1 sequence (P31391 whole entry): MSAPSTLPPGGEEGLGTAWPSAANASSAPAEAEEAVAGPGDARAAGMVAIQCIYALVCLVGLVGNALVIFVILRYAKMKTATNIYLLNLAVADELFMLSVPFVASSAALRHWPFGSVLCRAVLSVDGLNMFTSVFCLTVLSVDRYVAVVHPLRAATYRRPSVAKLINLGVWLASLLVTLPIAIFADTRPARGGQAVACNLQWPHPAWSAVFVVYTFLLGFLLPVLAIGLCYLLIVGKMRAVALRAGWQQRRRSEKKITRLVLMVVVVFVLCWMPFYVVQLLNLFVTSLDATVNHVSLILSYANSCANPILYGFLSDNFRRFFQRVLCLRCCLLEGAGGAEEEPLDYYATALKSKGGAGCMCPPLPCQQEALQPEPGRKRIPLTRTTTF

C[C@@H](C(=O)NC(C)(C)c1nccc2ccccc12)[C@@H]1CCCN1C (racemic) [Example 110, (R)-N-(2-(isoquinolin-1-yl)propan-2-yl)-2-((S)-1-methylpyrrolidin-2-yl)propanamide and (S)-N-(2-(isoquinolin-1-yl)propan-2-yl)-2-((R)-1-methylpyrrolidin-2-yl)propanamide]
EC50 [1]: 3.98 nM
IC50 [2]: 79.4 nM
IC50 [3]: 12600 nM

C[C@@H](C(=O)NC(C)(C)c1nccc2ccccc12)[C@H]1CCCN1C (racemic) [Example 111, (R)-N-(2-(isoquinolin-1-yl)propan-2-yl)-2-((R)-1-methylpyrrolidin-2-yl)propanamide and (S)-N-(2-(isoquinolin-1-yl)propan-2-yl)-2-((S)-1-methylpyrrolidin-2-yl)propanamide]
EC50 [1]: 3.16 nM
IC50 [2]: 25.1 nM
IC50 [3]: 3980 nM

Cc1cccc2c(C(C)(C)NC(=O)C[C@H]3CCCCN3C)nccc12 (single isomer, unassigned) [Example 8]
EC50 [1]: 2.51 nM
IC50 [2]: 50.1 nM
IC50 [3]: 3980 nM

Cc1cccc2c(C(C)(C)NC(=O)C[C@@H]3CCCCN3C)nccc12 (single isomer, unassigned) [Example 9]
EC50 [1]: 12.6 nM
IC50 [2]: 126 nM
IC50 [3]: 7940 nM

CN1CCCC[C@@H]1CC(=O)NC(C)(C)c1nccc2occc12 (single isomer, unassigned) [Example 14]
EC50 [1]: 6.31 nM
IC50 [2]: 79.4 nM
IC50 [3]: 25100 nM

CN1CCCC[C@H]1CC(=O)NC(C)(C)c1nccc2occc12 (single isomer, unassigned) [Example 15]
EC50 [1]: 25.1 nM
IC50 [2]: 316 nM

Cc1cccc2c(C(C)(C)NC(=O)C[C@H]3CCCCN3C)noc12 (single isomer, unassigned) [Example 43]
EC50 [1]: 2 nM
IC50 [2]: 20 nM
IC50 [3]: 3980 nM

Cc1cccc2c(C(C)(C)NC(=O)C[C@@H]3CCCCN3C)noc12 (single isomer, unassigned) [Example 44]
EC50 [1]: 6.31 nM
IC50 [2]: 63.1 nM
IC50 [3]: 12600 nM

COc1ccccc1C(C)(C)NC(=O)[C@H](C)CN1CCCC1 (single isomer, unassigned) [Example 75]
EC50 [1]: 2.51 nM
IC50 [2]: 31.6 nM
IC50 [3]: 10000 nM

Cc1cccnc1OCC1(NC(=O)[C@H](C)[C@@H]2CCCN2C)CC1 (single isomer, unassigned) [Example 127]
EC50 [1]: 7.94 nM
IC50 [2]: 126 nM
IC50 [3]: 7940 nM

CN1CCC[C@H]1CC(=O)NC(C)(C)[C@@H]1CCc2ccccc2O1 (single isomer, unassigned) [Example 128]
EC50 [1]: 39.8 nM
IC50 [2]: 316 nM
IC50 [3]: 10000 nM

CN1CCC[C@@H]1CC(=O)NC(C)(C)[C@@H]1CCc2ccccc2O1 (single isomer, unassigned) [Example 131]
EC50 [1]: 50.1 nM
IC50 [2]: 251 nM
IC50 [3]: 12600 nM

C[C@@H](CN1CCC1)C(=O)NC(C)(C)c1ccccc1Cl (single isomer, unassigned) [Example 134]
EC50 [1]: 1.26 nM
IC50 [2]: 50.1 nM
IC50 [3]: 6310 nM

C[C@H](CN1CCCC1)C(=O)NC(C)(C)c1ccccc1Cl (single isomer, unassigned) [Example 136]
EC50 [1]: 6.31 nM
IC50 [2]: 126 nM
IC50 [3]: 10000 nM

COc1ccc(C(C)(C)NC(=O)[C@H](C)CN2CCC2)cc1 (single isomer, unassigned) [Example 138]
EC50 [1]: 12.6 nM
IC50 [2]: 126 nM
IC50 [3]: 15800 nM

Cc1ccccc1C(C)(C)NC(=O)[C@H](C)CN1CCC1 (single isomer, unassigned) [Example 140]
EC50 [1]: 6.31 nM
IC50 [2]: 50.1 nM
IC50 [3]: 12600 nM

Cc1c(F)cccc1C(C)(C)NC(=O)[C@H](C)CN1CCC1 (single isomer, unassigned) [Example 142]
EC50 [1]: 1.58 nM
IC50 [2]: 15.8 nM
IC50 [3]: 2000 nM

Cc1cccc(C(C)(C)NC(=O)[C@@H](C)CN2CCC2)c1Cl (single isomer, unassigned) [Example 145]
EC50 [1]: 0.794 nM
IC50 [2]: 20 nM
IC50 [3]: 1260 nM

COc1c(C)cccc1C(C)(C)NC(=O)[C@H](C)CN1CCC1 (single isomer, unassigned) [Example 146]
EC50 [1]: 2.51 nM
IC50 [2]: 20 nM
IC50 [3]: 2510 nM

COc1c(C)cccc1C(C)(C)NC(=O)[C@@H](C)CN1CCC1 (single isomer, unassigned) [Example 147]
EC50 [1]: 63.1 nM
IC50 [2]: 1580 nM

Cc1ccc(C(C)(C)NC(=O)[C@@H](C)CN2CCC2)cc1 (single isomer, unassigned) [Example 149]
EC50 [1]: 3.16 nM
IC50 [2]: 50.1 nM
IC50 [3]: 6310 nM

C[C@@H](CN1CCC1)C(=O)NC1(c2ccccc2F)CC1 (single isomer, unassigned) [Example 151]
EC50 [1]: 7.94 nM
IC50 [2]: 100 nM
IC50 [3]: 7940 nM

C[C@@H](CN1CCC1)C(=O)NC(C)(C)c1cccc(F)c1 (single isomer, unassigned) [Example 153]
EC50 [1]: 3.98 nM
IC50 [2]: 79.4 nM
IC50 [3]: 6310 nM

CN1CCCCC1CC(=O)NC(C)(C)c1nccc2occc12 (stereo not shown) [Example 13, N-(2-(furo[3,2-c]pyridin-4-yl)propan-2-yl)-2-(1-methylpiperidin-2-yl)acetamide]
EC50 [1]: 20 nM
IC50 [2]: 126 nM

CCN1CCCC1CC(=O)NC1(COc2ncccc2C)CC1 (stereo not shown) [Example 63, 2-(1-ethylpyrrolidin-2-yl)-N-(1-(((3-methylpyridin-2-yl)oxy)methyl)cyclopropyl)acetamide]
EC50 [1]: 63.1 nM
IC50 [2]: 1580 nM

CN1CCC[C@H]1CC(=O)NC(C)(C)COc1ccccn1 [Example 123, (S)-N-(2-methyl-1-(pyridin-2-yloxy)propan-2-yl)-2-(1-methylpyrrolidin-2-yl)acetamide]
EC50 [1]: 158 nM

Cc1cnc(OCC(C)(C)NC(=O)C[C@@H]2CCCN2C)c(Cl)c1 [Example 124, (S)-N-(1-((3-chloro-5-methylpyridin-2-yl)oxy)-2-methylpropan-2-yl)-2-(1-methylpyrrolidin-2-yl)acetamide]
EC50 [1]: 39.8 nM

CN1CCC[C@H]1CC(=O)NC(C)(C)COc1nccc2occc12 [Example 125, (S)-N-(1-(furo[3,2-c]pyridin-4-yloxy)-2-methylpropan-2-yl)-2-(1-methylpyrrolidin-2-yl)acetamide]
EC50 [1]: 126 nM

Cc1ccc(C(NC(=O)C[C@@H]2CCCN2C)C(F)(F)F)cc1 (stereo partly drawn) [Example 158, 2-((S)-1-methylpyrrolidin-2-yl)-N-(2,2,2-trifluoro-1-(p-tolyl)ethyl)acetamide]
EC50 [1]: 398 nM

CN1CCC[C@@H]1CC(=O)NC(C)(C)c1ccccc1F [Example 159, (R)-N-(2-(2-fluorophenyl)propan-2-yl)-2-(1-methylpyrrolidin-2-yl)acetamide]
EC50 [1]: 398 nM

— patent US20230150981A1, “N-HETEROARYLALKYL-2-(HETEROCYCLYL AND HETEROCYCLYLMETHYL) ACETAMIDE DERIVATIVES AS SSTR4 AGONISTS” (Takeda Pharmaceutical Compnay Limited, priority 2020, published 2023)
